Values joined by “and” are separate entries in the source; they are usually repeats but may differ in a detail not shown here. Equal entries are not always repeated. Where a SMILES comes first, the peptide text is derived from it. Where no end group is shown, it is not given here.
Key:
[1] = molecular target: soluble HLA-B*0702 (Homo sapiens, UniProt P01889); test: Fluorescence polarization; format: binding
[2] = molecular target: soluble HLA-A*0201 (Homo sapiens, UniProt P04439, D140Y/D185E/D98H/E176V/E277Q/G131W/G231S/I119V/I121R/I166T/I218V/L300P/L318F/N151K/N90K/P208A/P217A/Q86G/Q94H/R138H/R169H/T345S); test: Fluorescence polarization; format: binding
[3] = molecular target: soluble HLA A*0201 or B*0702 (allele not stated for the peptide family); test: fluorescence polarisation
[4] = test system: autologous PBMC of subject 8; test: Memory; format: cell-based, human
[5] = over the course of infection, time points as worded

Compound | IC50 [1] [µM] | also measured
IPGPGRHPL | 3.24 | 
PVTFGWCFKL |  | IC50 [2]: 3020 µM
Gag p24 143-151 […] (peptide) |  | logIC50 [3]: 4.34 and 3.92
PPRTLNAWV | 16.6 | 
CC(C)C[C@H](NC(=O)[C@@H](N)[C@@H](C)O)C(=O)N[C@@H](CC(N)=O)C(=O)N[C@@H](C)C(=O)N[C@@H](Cc1c[nH]c2ccccc12)C(=O)N[C@H](C(=O)N[C@@H](CCCCN)C(=O)N[C@H](C(=O)N[C@H](C(=O)O)C(C)C)C(C)C)C(C)C |  | IC50 [2]: 14.5 µM
SPRTLSAWV | 1200 | 
SPRALNAWV | 11.7 | 
IGSGRAFYAT |  | IC50 [2]: 3630 µM
RPMTWKGAL [RPMTWKGAL] | 7.08 | 
CC(C)C[C@H](NC(=O)[C@H](CCCCN)NC(=O)[C@H](Cc1ccccc1)NC(=O)[C@H](CS)NC(=O)[C@H](Cc1c[nH]c2ccccc12)NC(=O)CNC(=O)[C@H](Cc1ccccc1)NC(=O)[C@@H](NC(=O)[C@H](CC(C)C)NC(=O)[C@@H]1CCCN1)[C@@H](C)O)C(=O)O |  | IC50 [2]: 3020 µM
SLFNTVATL |  | IC50 [2]: 6.46 µM
RPMTCKGAL [RPMTCKGAL] | 5.5 | 
RPNNNTGKRI | 22.9 | 
RPNNSTRKSI | 7.41 | 
SPRTLDAWV | 24 | 
SLFNTVAAL [SLFNTVAAL] |  | IC50 [2]: 6.92 µM
RPMTWKAAL [RPMTWKAAL] | 7.24 | 
TPGPGPRYPM | 3.72 | 
TPGPGIRYPM | 3.16 | 
CSCC[C@H](NC(=O)[C@@H]1CCCN1)C(=O)N[C@@H](CS)C(=O)N[C@@H](Cc1ccccc1)C(=O)NCC(=O)N[C@@H](Cc1c[nH]c2ccccc12)C(=O)N[C@@H](CS)C(=O)N[C@@H](Cc1ccccc1)C(=O)N[C@@H](CCCCN)C(=O)N[C@@H](CC(C)C)C(=O)O (H-PMCFGWCFKL-OH; N-terminus and C-terminus assumed) |  | memory T cell response (IFN-γ ELISPOT), in words ([4]; early cART / following cART (8.3–10.1 yr)): recovered during therapy; memory T cell response (IFN-γ ELISPOT), in words ([4]; late cART (>12.4 yr)): eventual loss; memory T cell response (IFN-γ ELISPOT), in words [4, 5]: no-to-low memory responses
CC(C)C[C@H](NC(=O)[C@@H]1CCCN1C(=O)[C@H](Cc1ccc(O)cc1)NC(=O)[C@H](CCCNC(=N)N)NC(=O)[C@@H](NC(=O)CNC(=O)[C@@H]1CCCN1C(=O)CNC(=O)[C@@H]1CCCN1C(=O)[C@@H](N)[C@@H](C)O)C(C)C)C(=O)O | 4.37 | 
FPARPQVPL | 4.57 | 

Compound | IC50 [1] [µM] | also measured
CC[C@H](C)[C@H](NC(=O)[C@H](CCCNC(=N)N)NC(=O)[C@H](CCCCN)NC(=O)[C@H](CCCNC(=N)N)NC(=O)[C@@H](NC(=O)[C@H](CC(N)=O)NC(=O)[C@H](CC(N)=O)NC(=O)[C@H](CC(N)=O)NC(=O)[C@@H]1CCCN1C(=O)[C@@H](N)CCCNC(=N)N)[C@@H](C)O)C(=O)O | 20.9 | 
SLFNTVATP |  | IC50 [2]: 174 µM
ALNAWVKVV |  | IC50 [2]: 8.51 µM
RPSNNTRKRI | 14.8 | 
RPNNNTRKSL | 4.9 | 
RPTNNTRKSI | 5.62 | 
TPGPGIRYPL | 6.03 | 
RPITYKAAL [RPITYKAAL] | 7.41 | 
CC(C)C[C@H](NC(=O)[C@@H]1CCCN1C(=O)[C@H](Cc1ccccc1)NC(=O)[C@H](CCCNC(=N)N)NC(=O)[C@@H](NC(=O)CNC(=O)[C@@H]1CCCN1C(=O)CNC(=O)[C@@H]1CCCN1C(=O)[C@@H](N)[C@@H](C)O)[C@@H](C)O)C(=O)O | 2.88 | 
IGPGIAFYAT |  | IC50 [2]: 813 µM
RPNNDTRKSI | 7.08 | 
CC(C)C[C@H](NC(=O)[C@@H]1CCCN1C(=O)[C@H](Cc1ccccc1)NC(=O)[C@H](CCCNC(=N)N)NC(=O)[C@@H]1CCCN1C(=O)CNC(=O)[C@@H]1CCCN1C(=O)CNC(=O)[C@@H]1CCCN1C(=O)[C@@H](N)[C@@H](C)O)C(=O)O | 4.57 | 
PITFGWCFKL |  | IC50 [2]: 2240 µM
SPRPLNAWV | 15.1 | 
CC(C)C[C@H](NC(=O)[C@@H]1CCCN1C(=O)[C@@H](NC(=O)[C@H](CCC(N)=O)NC(=O)[C@@H]1CCCN1C(=O)[C@H](CCCNC(=N)N)NC(=O)[C@@H](NC(=O)[C@@H]1CCCN1C(=O)[C@@H](N)Cc1ccccc1)C(C)C)C(C)C)C(=O)O | 6.76 | 
SLFNTIATL |  | IC50 [2]: 8.32 µM
RSNNNTRKSI | 21.4 | 
RPMTYKGAL [RPMTYKGAL] | 7.76 | 
TLSAWVKVV |  | IC50 [2]: 15.1 µM
CC(C)C[C@H](NC(=O)[C@H](CCCCN)NC(=O)[C@H](Cc1ccccc1)NC(=O)[C@H](CS)NC(=O)[C@H](Cc1c[nH]c2ccccc12)NC(=O)CNC(=O)[C@H](Cc1ccccc1)NC(=O)[C@H](CS)NC(=O)[C@H](CC(C)C)NC(=O)[C@@H]1CCCN1)C(=O)O (H-PLCFGWCFKL-OH; N-terminus and C-terminus assumed) |  | memory T cell response (IFN-γ ELISPOT), in words [4, 5]: no-to-low memory responses
CSCC[C@H](NC(=O)[C@@H]1CCCN1C(=O)[C@@H](N)CCCNC(=N)N)C(=O)N[C@H](C(=O)N[C@@H](Cc1ccc(O)cc1)C(=O)N[C@@H](CCCCN)C(=O)N[C@@H](C)C(=O)N[C@@H](C)C(=O)N[C@@H](CC(C)C)C(=O)O)[C@@H](C)O [RPMTYKAAL] | 11 | 
FSVRPQVPL | 70.8 | 

Compound | IC50 [1] [µM] | also measured
RPMTRKAAL [RPMTRKAAL] | 6.61 | 
RPNNNTRKST | 11 | 
TPGPGPRYPV | 6.61 | 
CC[C@H](C)[C@H](NC(=O)CNC(=O)[C@@H]1CCCN1C(=O)CNC(=O)[C@@H]1CCCN1C(=O)[C@@H](N)[C@@H](C)O)C(=O)N[C@@H](CCCNC(=N)N)C(=O)N[C@@H](Cc1ccccc1)C(=O)N1CCC[C@H]1C(=O)N[C@@H](CC(C)C)C(=O)O | 2.51 | 
TPGPGIRFPI | 5.89 | 
Env gp160/120 341-349 […] (peptide) |  | logIC50 [3]: 4.36
IGPGRAFYAA |  | IC50 [2]: 30.2 µM
RPNNNTRRSI | 9.77 | 
IGPGRAFYAT |  | IC50 [2]: 437 µM
CC(C)C[C@H](NC(=O)[C@@H](NC(=O)[C@H](CCCNC(=N)N)NC(=O)[C@@H]1CCCN1C(=O)[C@@H](N)CO)[C@@H](C)O)C(=O)N[C@@H](CC(N)=O)C(=O)N[C@@H](C)C(=O)N[C@@H](Cc1c[nH]c2ccccc12)C(=O)N[C@H](C(=O)O)C(C)C | 15.1 | 
TKGPGIRFPL | 257 | 
SPVRPQVPL | 4.68 | 
PLNAWVKVV |  | IC50 [2]: 64.6 µM
TPGPGPRYPL | 5.89 | 
RPNNNTRKCI | 42.7 | 
TLDAWVKVV |  | IC50 [2]: 20 µM
CC[C@H](C)[C@H](NC(=O)CNC(=O)[C@@H]1CCCN1C(=O)CNC(=O)[C@@H]1CCCN1C(=O)[C@@H](N)[C@@H](C)O)C(=O)N[C@@H](CCCNC(=N)N)C(=O)N[C@@H](Cc1ccc(O)cc1)C(=O)N1CCC[C@H]1C(=O)N[C@H](C(=O)O)C(C)C | 5.5 | 
TPGPGTRYPL | 3.72 | 
TSGPGTRFPL | 70.8 | 
PLTLGWCFKL |  | IC50 [2]: 1260 µM
FPIRPQVPL | 4.17 | 
RPNNNTRKSI | 3.63 | 
